# Columns and labels:
# glucagon receptor = molecular target: T1, glucagon receptor (Rattus norvegicus, UniProt P30082); assay: Adenylate cyclase assay: glucagon-stimulated cAMP production in liver plasma membranes (Amersham Scintillation Proximity Assay kit); type: biochemical; settings: for cAMP response to glucagon, serial dilutions of test substance: fixed 5 nM glucagon stock, 5 μl per well; for inhibition of cAMP activity with increasing concentration of test substance (FIG. 7): fixed concentration of glucagon
# T1 construct: Liver plasma membranes for use in adenylate cyclase assays were prepared; from tissue; host or cells: rat liver plasma membranes
# T1 sequence (P30082 27-485): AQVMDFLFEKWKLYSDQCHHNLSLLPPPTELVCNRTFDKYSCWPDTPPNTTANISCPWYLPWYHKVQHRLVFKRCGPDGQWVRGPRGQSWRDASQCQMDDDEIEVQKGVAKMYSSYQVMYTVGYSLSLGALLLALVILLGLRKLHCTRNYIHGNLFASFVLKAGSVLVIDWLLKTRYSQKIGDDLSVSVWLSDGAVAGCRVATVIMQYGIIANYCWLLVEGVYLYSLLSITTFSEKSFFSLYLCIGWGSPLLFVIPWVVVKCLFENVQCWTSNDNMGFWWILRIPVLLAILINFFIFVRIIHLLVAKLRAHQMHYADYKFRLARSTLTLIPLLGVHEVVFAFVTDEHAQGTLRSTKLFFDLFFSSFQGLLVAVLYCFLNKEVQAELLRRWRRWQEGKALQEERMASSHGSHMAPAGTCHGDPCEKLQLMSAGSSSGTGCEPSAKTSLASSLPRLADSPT
# Experimental: Liver plasma membranes for use in adenylate cyclase assays were prepared essentially as described by Neville et al. (Biochim. Biophys. Acta 154:540-552, 1968) as modified by Pohl (Methods in Receptor Research, Blecher (ed.), New York, pp. 160-164, 1976). Twenty rats were euthanized by decapitation, and the livers were removed and cooled to 4° C. After cooling, the livers were maintained at 4° C. during the membrane preparation. The approximate volume of the livers was determined. Three volumes of medium (1 mM NaHCO3, 0.5 mM CaCl2) were added to the livers, and the liver tissue was roughly minced with scissors. The minced tissue was divided into two parts, and each part was homogenized for thirty seconds in a Waring-type blender at full speed. After homogenization, the homogenates were each transferred to a sieve with a 1.5 mm pore size, and the homogenates were strained through the sieve. The straining procedure was repeated for each homogenate through a finer screen. The strained homogenates were combined, and medium was added to a final volume of one liter. The homogenate was further homogenized with a Dounce homogenizer using eight vigorous strokes of the loose pestle. The homogenates were filtered through four layers of cheesecloth. The strained homogenates were centrifuged at approximately 150×g in a swinging bucket rotor for 20 minutes at 4° C. The supernalant was discarded, and the precipitate was resuspended in 500 ml of medium and homogenized in a Dounce homogenizer with three strokes of the loose pestle. The centrifugation was repeated, and the resulting precipitate was resuspended in 250 ml of medium. The homogenate was centrifuged as described, and the precipitate was suspended in 50 to 100 ml of medium. The suspension was homogenized in a Dounce homogenizer with three strokes of the loose pestle. Sucrose from a 69% sucrose solution was added to the suspension to a final sucrose concentration of 44.0±0.1%. The solution was centrifuged in an ultracentrifuge at approximately 100,000×g for 150 minutes. The membranes were removed from the top of the tube with a spoon. The membranes were stored at -80° C.
# Adenylate cyclase assays were carried out in the presence and absence of […] diluted in DMSO. Glucagon (Mallinkrodt Inc. St. Louis, Mo.) was dissolved in 10% acetic acid and lyophilized in 25-μg portions. The lyophilized glucagon was dissolved in 100 μl of 0.05M HCl and left for three minutes, after which the glucagon was serially diluted in buffer (2.5% human serum albumin (Grade 5, Sigma Chemical Co., St. Louis, Mo.) in 0.1M HEPES, 0.15M NaCl, pH 7.4) to final concentrations of between 0 and 100 nM. Aliquots of the membrane preparations were thawed and diluted with water to a protein concentration of approximately 3-5 mg/ml.
# For each 96-well assay plate, triplicate samples were assayed in the presence and absence of 20 μM skyrin. […] Five microliters of 20 μM skyrin in DMSO or 5 μl of DMSO alone was added to each well. Fifty microliters of incubation mixture (0.1% human serum albumin (Grade 5, Sigma), 15 mM MgCl2, 1 mM ATP, 0.9 mM IBMX (3-isobutyl-1-methylxanthine, Sigma), 15 mM creatine phosphate, and 5 mg/ml creatine phosphokinase in 50 mM Tris-HCl (pH 7.4) was then added to each well. […]
# The cAMP produced in each reaction was determined by assaying 10 μl of each sample using an Amersham Scintillation Proximity Assay kit (Amersham, Arlington Heights, Ill.). […]
# [1] = system: rice dwarf virus-RNA transcriptase; settings: Yangai et al. 1976; cited from earlier work
# [2] = Stark et al. 1978; cited from earlier work
# [3] = molecular target: T2, glucagon binding to rat liver membranes (Rattus norvegicus, UniProt P30082); assay: 125I-glucagon binding to rat liver membranes; settings: 20 μl of 56 μM skyrin vs DMSO; 30 min at 30° C.; FIG. 8
# T2 construct: 0.2 mg of rat liver membranes in 20 μl in water; from tissue; host or cells: rat liver membranes
# T2 sequence (P30082 27-485): as above
# Experimental: Glucagon binding to rat liver membranes in the presence and absence of skyrin was determined in this experiment. Reactions tubes were prepared, each of which contained 20 μl of serially diluted unlabeled glucagon from 10^-5 M to 10^-10 M, 100 μl of 2× binding buffer (100 mM HEPES, pH 7.6), 200 mM NaCl, 2 mM EDTA, 2.0% bovine serum albumin (BSA), 1.0 mg/ml of bacitracin (Sigma Chem. Co.), approximately 0.1 nmoles of ^125 I-glucagon (Amersham) in 10 mM acetic acid/0.5% BSA with a specific activity of 2000 Ci/mmole, 20 μl of 56 μM skyrin (dissolved and diluted in DMSO) or DMSO, and water to achieve a final volume of 180 μl. The reaction was initiated by the addition of 0.2 mg of rat liver membranes in 20 μl in water. The reactions were incubated for 30 minutes at 30° C. After incubation the tubes were centrifuged at high speed in a microfuge for 10 minutes at 4° C. The supernatants were discarded, and the radioactivity in the pellets was quantitated with a gamma-counter (the level of radioactivity in a sample indicated the total binding of glucagon to the rat liver membranes). […] Based on this experiment, it is believed that the glucagon antagonists of this invention, including skyrin and skyrin analogs, function as glucagon antagonists by interrupting postglucagon binding events.
# [4] = system: rat leukemia cell mitochondria; settings: cited from earlier work
# [5] = molecular target: T3, VIP-stimulated non-glucagon G protein-coupled receptors in liver membranes (Rattus norvegicus, UniProt P30083); assay: Adenylate cyclase assay with VIP in place of glucagon; type: biochemical; settings: serial dilutions of VIP, with and without skyrin; FIG. 4
# T3 construct: Liver plasma membranes for use in adenylate cyclase assays were prepared; from tissue; host or cells: rat liver plasma membranes
# T3 sequence (P30083 31-459): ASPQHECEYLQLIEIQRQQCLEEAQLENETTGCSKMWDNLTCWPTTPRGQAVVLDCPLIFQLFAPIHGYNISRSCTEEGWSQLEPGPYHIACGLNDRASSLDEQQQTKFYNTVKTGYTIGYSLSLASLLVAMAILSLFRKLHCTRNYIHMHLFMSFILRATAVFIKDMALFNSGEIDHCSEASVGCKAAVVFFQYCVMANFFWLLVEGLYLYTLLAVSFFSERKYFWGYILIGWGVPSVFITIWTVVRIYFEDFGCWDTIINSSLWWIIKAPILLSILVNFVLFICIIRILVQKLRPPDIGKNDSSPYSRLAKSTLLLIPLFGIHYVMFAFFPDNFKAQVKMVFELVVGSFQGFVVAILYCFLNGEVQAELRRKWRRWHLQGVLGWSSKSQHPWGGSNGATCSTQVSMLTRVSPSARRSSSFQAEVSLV
# Experimental: (§1) Liver plasma membranes for use in adenylate cyclase assays were prepared essentially as described by Neville et al. (Biochim. Biophys. Acta 154:540-552, 1968) as modified by Pohl (Methods in Receptor Research, Blecher (ed.), New York, pp. 160-164, 1976). Twenty rats were euthanized by decapitation, and the livers were removed and cooled to 4° C. After cooling, the livers were maintained at 4° C. during the membrane preparation. The approximate volume of the livers was determined. Three volumes of medium (1 mM NaHCO3, 0.5 mM CaCl2) were added to the livers, and the liver tissue was roughly minced with scissors. The minced tissue was divided into two parts, and each part was homogenized for thirty seconds in a Waring-type blender at full speed. After homogenization, the homogenates were each transferred to a sieve with a 1.5 mm pore size, and the homogenates were strained through the sieve. […]
# (§2) The cAMP produced in each reaction was determined by assaying 10 μl of each sample using an Amersham Scintillation Proximity Assay kit (Amersham, Arlington Heights, Ill.).
# (§3) The specificity of the skyrin antagonist activity was assessed by replacing the serial dilutions of glucagon with serial dilutions of vasoactive intestinal peptide (VIP; Sigma Chemical Co., St. Louis, Mo.), calcitonin gene-related peptide (CGRP), forskolin (Calbiochem, San Diego, Calif.) and GTP-γS. […]
# [6] = system: GTPγS-stimulated cAMP production; assay: Adenylate cyclase assay with GTPγS, receptor-independent stimulation of cAMP production; type: biochemical, rat
# Experimental: as §1, §2, §3
# rat liver mitochondria = settings: cited from earlier work
# [7] = molecular target: T4, CGRP-stimulated non-glucagon G protein-coupled receptors in liver membranes (Rattus norvegicus, UniProt Q63118); assay: Adenylate cyclase assay with CGRP in place of glucagon; type: biochemical; settings: serial dilutions of CGRP, with and without skyrin; FIG. 5
# T4 construct: Liver plasma membranes for use in adenylate cyclase assays were prepared; from tissue; host or cells: rat liver plasma membranes
# T4 sequence (Q63118 24-464): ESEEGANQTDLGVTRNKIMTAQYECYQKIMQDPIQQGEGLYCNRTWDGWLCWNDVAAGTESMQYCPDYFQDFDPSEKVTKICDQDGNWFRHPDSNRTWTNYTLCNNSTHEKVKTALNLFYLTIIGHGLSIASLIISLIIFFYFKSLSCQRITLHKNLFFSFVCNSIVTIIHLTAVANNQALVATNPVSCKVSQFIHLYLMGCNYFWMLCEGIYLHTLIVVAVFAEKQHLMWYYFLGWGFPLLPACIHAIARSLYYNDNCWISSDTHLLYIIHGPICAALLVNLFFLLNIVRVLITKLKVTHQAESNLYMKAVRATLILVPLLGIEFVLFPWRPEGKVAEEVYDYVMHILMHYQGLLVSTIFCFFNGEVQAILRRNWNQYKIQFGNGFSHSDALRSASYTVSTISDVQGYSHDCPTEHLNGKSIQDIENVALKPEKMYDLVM
# T4 sequence (Q9JJ74 27-148 partner): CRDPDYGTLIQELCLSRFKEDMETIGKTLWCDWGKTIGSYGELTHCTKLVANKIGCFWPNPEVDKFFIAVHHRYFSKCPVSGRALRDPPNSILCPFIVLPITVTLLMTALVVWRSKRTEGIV
# Experimental: as §1, §2, §3
# [8] = system: forskolin-stimulated cAMP production; assay: Adenylate cyclase assay with forskolin, receptor-independent stimulation of cAMP production; type: biochemical, rat; settings: presence and absence of 0.02 mM skyrin
# Experimental: as §1, §2, §3
SMILES,"cAMP response to glucagon, serial dilutions of test substance (glucagon receptor)",inhibition of cAMP activity with increasing concentration of test substance (FIG. 7) (glucagon receptor),inhibition of rice dwarf virus-RNA transcriptase [1],mutagenicity [2],binding of glucagon to rat liver membrane [3],uncoupling of oxidative phosphorylation [4],stimulation of cAMP production by VIP [5],"cAMP response to glucagon (glucagon receptor; 20 μM skyrin in DMSO vs DMSO alone, glucagon 0-100 nM, FIG. 3)",cAMP levels produced by GTPγS ([6]; presence and absence of 0.02 mM skyrin),GTPγS-stimulated cAMP levels (FIG. 6) ([6]; presence of 0.2 mM skyrin as printed),uncoupling of oxidative phosphorylation (rat liver mitochondria),stimulation of cAMP production by CGRP [7],cAMP levels produced by forskolin [8]
Cc1cc(O)c2c(c1)C(=O)c1c(c(O)cc(O)c1-c1c(O)cc(O)c3c1C(=O)c1cc(CO)cc(O)c1C3=O)C2=O [oxyskyrine],inhibited cAMP response to glucagon,increase in inhibition of cAMP activity,,,,,,,,,,,
Cc1cc(O)c2c(c1)C(=O)c1c(c(O)cc(O)c1-c1c(O)cc(O)c3c1C(=O)c1cc(C)cc(O)c1C3=O)C2=O [skyrin],inhibited cAMP response to glucagon,increase in inhibition of cAMP activity,selectively inhibit,non-mutagenic,increased binding of glucagon,uncouple oxidative phosphorylation,did not affect the stimulation,inhibited the cAMP response to glucagon,unaffected,uneffected,uncouple oxidative phosphorylation,did not affect the stimulation,unaffected
